Experimental data from patent US10793576B2, “Compound used as Bruton's tyrosine kinase inhibitor and preparation method and application thereof” (Chengdu Brilliant Pharmaceutical Co., LTD., priority 2017, dated 2020).
Read-outs that look alike come from different tables or passages of the source.

Legend:
DOHH2 cells = experiment: Cell proliferation inhibition in vitro, DOHH2 cells by CTG assay; format: cell-based; details: read-out: Inhibitions of cell activities IC50 (nM) DOHH2
Method: (§1) Test Example 2: Determination of the Inhibition of Cell Proliferation Inhibitory Activity in
(§2) vitro of compounds using different cell lines
(§3) 2: Preparation of the Compounds:
(§4) The compounds to be tested were diluted with DMSO to prepare a mother liquor at a final concentration of 10 mM for later use.
3.2 Test of DOHH2 Cells by CTG Assay
(§5) Logarithmic growth phase cells were collected, counted and resuspended in complete medium. The cell concentration was adjusted to a suitable concentration (determined according to the cell density optimization test results), and seeded to 96-well plate and 100 μl of the cell suspension was added to each well. The cells were incubated in an incubator at 37° C., 100% relative humidity and 5% C02 for 24 hours.
The compounds to be tested were diluted with the medium to the set corresponding action concentration, and the cells were added at 10 µl/well. The cells were incubated in an incubator set at 37° C., 100% relative humidity and 5% C02 for 72 hours.
The medium was aspirated and discarded, and 30 μl of test reagent was added. The plate was gentle shaken away from the light to lyse the cells.
(§6) As: OA of the sample (cell+test reagent+test compound)
(§7) Ac: OA of the negative control (cell+test reagent+DMSO)
(§8) Ab: OA of the positive control (medium+test reagent+DMSO)
(§9) IC50 curve fitting was performed using the software Graphpad Prism 5 or XLfit and IC50 values were calculated.

TMD8 cells = experiment: Cell proliferation inhibition in vitro, TMD8 cells by CCK-8 method; format: cell-based; details: 72 hours, read-out: Inhibitions of cell activities IC50 (nM) TMD8
Method: as §1, §2, §3, §4
(§10) 3.1. Test of TMD8 and OCI-ly10 Cells by CCK-8 Method
as §5
(§11) The compounds to be tested were diluted with the medium to the set corresponding action concentration, and the cells were added at 25 µl/well. The cells were incubated in an incubator at 37° C., 100% relative humidity and 5% C02 for 72 hours.
(§12) The medium was aspirated and discarded, and a complete medium containing 10% of the test reagent was added and the obtained system was incubated in a 37° C. incubator for 1 hour-4 hours.
as §6, §7, §8, §9

OCI-LY10 cells = experiment: Cell proliferation inhibition in vitro, OCI-ly10 cells by CCK-8 method; format: cell-based; details: 72 hours, read-out: Inhibitions of cell activities IC50 (nM) OCI-LY10
Method: as §1, §2, §3, §4, §10, §5, §11, §12, §6, §7, §8, §9

[1] = Pharmacokinetic test in SD rats (oral 10 mg/kg, intravenous 1 mg/kg); format: in vivo; details: SD rat; for F (po) %: oral 10 mg/kg vs intravenous 1 mg/kg; for clearance / half-life / AUC / Cmax / Tmax: male, plasma; for clearance / half-life: intravenous 1 mg/kg; for clearance: read-out: Cl (iv) (converted); for half-life: read-out: T½ (iv) h (converted); for AUC / Cmax / Tmax: oral 10 mg/kg
Method: SD rat, male (purchased from Shanghai Sippr-Bk Laboratory Animal Co., Ltd.), each tested compound was administered at a single dose to SD rats by oral administration (10 mg/kg, 3 rats in each group) and intravenous administration (1 mg/kg, 3 rats in each group) for the pharmacokinetic study. The tested compounds were dissolved using DMSO/[…] sodium chloride injection=5/95 (V/V), and vortexed for 1 minute, and after 1 minute of sonication, the compounds were formulated into solutions for administrations. Animals were fasted for 16-17 hours prior to oral administration and feeding was restored 4 hours after administration. After oral and intravenous administration, pharmacokinetic samples were collected from SD rats by jugular vein or cardiac puncture at the following time points: before administration, 5 minute, 15 minute, 30 minute, 1 hour, 2 hours, 4 hours, 6 hours, 8 hours and 24 hours after administration. 3 whole blood samples were collected at each time point, and the collected amount was about 0.2 mL, and the collected samples were anticoagulated by heparin sodium. After collection, the blood samples were immediately placed on ice and centrifuged to separate plasma within 30 minutes (centrifugation conditions: 8000 rpm, 6 minute, 2-8° C.). The collected plasma was stored at −70° C. prior to analysis. 50 μL of plasma sample was brought into a 1.5 mL centrifuge tube, 250 μL of internal standard solution (blank with no internal standard but the same volume of methanol added) was added, blended with vortex, centrifuged at 15000 rpm for 5 minutes. 200 μL of supernatant was taken and added to a 96-well sample plate and the samples were analyzed by LC-MS/MS.

hERG potassium channel = hERG potassium channel (Homo sapiens (Human), UniProt Q12809); experiment: hERG experiment to investigate potential cardiotoxicity (manual patch clamp, CHO hERG cells); format: cell-based; details: whole cell patch clamp, tail current
Method: CHO hERG cells were grown in a culture dish containing the above medium, and cultured in an incubator at 37° C. and 5% CO2. CHO hERG cells were transferred to circular glass slides placed in the culture dish 24-48 hours prior to electrophysiological experiments and grown under the same medium and culture conditions as above. The density of CHO hERG cells on each circular slide shall meet the requirement that most of the cells are independent and individual.
2: Preparation of Experimental Solutions
3: Electrophysiological Recording System
A manual patch clamp system (HEKA EPC-10 signal amplifier and digital conversion system, purchased from HEKA Electronics, Germany) is used in this experiment for whole cell currents recording. A circular slide with CHO hERG cells grown on its surface was placed in an electrophysiology recording tank under an inverted microscope. The extracellular fluid was continuously perfused in the recording tank (about 1 ml per minute). A conventional whole cell patch clamp current recording technique was used in the experimental procedure. Unless otherwise specified, the experiments were carried out at conventional room temperature (about 25° C.). The cells were clamped at a voltage of −80 mV. The clamp voltage for cells was depolarized to +20 mV to activate the hERG potassium channel, and after 5 seconds, the cells were clamped to −50 mV to eliminate inactivation and generate a tail current. The tail current peak was used as the value of the hERG current magnitude. After the hERG potassium current recorded in the above step was stable under the continuous extracellular fluid perfusion in the recording tank, the drug to be tested can be perfused simultaneously and filled until the inhibitory effect of the drug on the hERG current reached a steady state. Generally, the superposition of the last three consecutive current recording lines was used as a criterion for judging whether or not the state was stable. After reaching a steady state, a wash with extracellular fluid perfusion was conducted until the hERG returned to that before the drug was added. One cell can be used to test one or more drugs, or multiple concentrations of the same drug, but need to be washed with an extracellular fluid between different drugs. Cisapride (purchased from Sigma) was used as a positive control in the experiment to ensure that the cells used were of normal quality.
4: Treatment and Dilution of Compounds
Prior to testing, the compounds were first diluted to 10, 3, 1, 0.3, and 0.1 mM stock solutions by a method of gradual dilution with DMSO, and were then diluted to the final M test concentration with extracellular fluids. The final concentration of DMSO in each of the other compound solutions was 0.1%, except that the DMSO concentration in the 30 μM compound test solution was 0.3%. The test concentration of the positive control (Cisapride) was 0.1 μM. All compound solutions were sonicated and shaken for a routine of 5 to 10 minutes to ensure complete dissolution of the compounds.
The test data were analyzed by HEKA Patchmaster, Microsoft Excel and data analysis software provided by Graphpad Prism.

BTK kinase = BTK kinase (Homo sapiens (Human), UniProt Q06187); experiment: In vitro assay for the inhibition of BTK kinase activity (Mobility-Shift Assay); format: biochemical
In short: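 Fluorescently labelled peptide substrate converted by the kinase; substrate and phosphorylated product separated by charge on a microfluidic chip (mobility shift) and quantified separately. Results expressed as conversion rate; control wells received 100% DMSO.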

hERG potassium channel, sequence (Q12809 whole entry): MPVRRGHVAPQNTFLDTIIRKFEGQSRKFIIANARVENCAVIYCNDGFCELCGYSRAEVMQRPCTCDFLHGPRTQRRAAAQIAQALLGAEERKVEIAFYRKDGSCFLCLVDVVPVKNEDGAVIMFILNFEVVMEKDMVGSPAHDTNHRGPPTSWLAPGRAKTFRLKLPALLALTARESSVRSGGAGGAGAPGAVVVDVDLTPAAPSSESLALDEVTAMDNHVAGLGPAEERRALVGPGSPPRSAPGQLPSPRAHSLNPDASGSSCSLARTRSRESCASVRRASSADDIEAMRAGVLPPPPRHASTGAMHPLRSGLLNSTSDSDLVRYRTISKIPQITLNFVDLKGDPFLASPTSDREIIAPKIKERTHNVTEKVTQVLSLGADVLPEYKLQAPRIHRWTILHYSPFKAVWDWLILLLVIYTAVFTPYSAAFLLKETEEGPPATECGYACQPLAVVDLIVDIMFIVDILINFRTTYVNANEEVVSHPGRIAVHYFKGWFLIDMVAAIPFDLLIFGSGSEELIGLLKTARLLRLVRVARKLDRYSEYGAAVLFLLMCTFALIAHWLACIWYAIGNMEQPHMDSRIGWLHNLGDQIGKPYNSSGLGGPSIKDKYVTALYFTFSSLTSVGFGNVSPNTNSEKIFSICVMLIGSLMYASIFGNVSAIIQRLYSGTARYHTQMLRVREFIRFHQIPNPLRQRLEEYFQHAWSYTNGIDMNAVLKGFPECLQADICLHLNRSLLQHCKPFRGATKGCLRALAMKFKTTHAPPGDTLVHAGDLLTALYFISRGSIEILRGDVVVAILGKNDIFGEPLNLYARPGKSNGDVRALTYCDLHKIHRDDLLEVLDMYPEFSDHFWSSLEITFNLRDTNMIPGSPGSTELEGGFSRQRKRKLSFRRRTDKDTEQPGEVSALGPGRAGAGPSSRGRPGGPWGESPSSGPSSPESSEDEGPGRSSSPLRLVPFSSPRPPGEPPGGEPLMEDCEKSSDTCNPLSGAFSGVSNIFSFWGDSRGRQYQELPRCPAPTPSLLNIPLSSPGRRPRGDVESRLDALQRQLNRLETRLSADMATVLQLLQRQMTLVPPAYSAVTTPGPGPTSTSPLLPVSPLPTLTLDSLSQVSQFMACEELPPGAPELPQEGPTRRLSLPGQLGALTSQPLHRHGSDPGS
BTK kinase, sequence (Q06187 whole entry): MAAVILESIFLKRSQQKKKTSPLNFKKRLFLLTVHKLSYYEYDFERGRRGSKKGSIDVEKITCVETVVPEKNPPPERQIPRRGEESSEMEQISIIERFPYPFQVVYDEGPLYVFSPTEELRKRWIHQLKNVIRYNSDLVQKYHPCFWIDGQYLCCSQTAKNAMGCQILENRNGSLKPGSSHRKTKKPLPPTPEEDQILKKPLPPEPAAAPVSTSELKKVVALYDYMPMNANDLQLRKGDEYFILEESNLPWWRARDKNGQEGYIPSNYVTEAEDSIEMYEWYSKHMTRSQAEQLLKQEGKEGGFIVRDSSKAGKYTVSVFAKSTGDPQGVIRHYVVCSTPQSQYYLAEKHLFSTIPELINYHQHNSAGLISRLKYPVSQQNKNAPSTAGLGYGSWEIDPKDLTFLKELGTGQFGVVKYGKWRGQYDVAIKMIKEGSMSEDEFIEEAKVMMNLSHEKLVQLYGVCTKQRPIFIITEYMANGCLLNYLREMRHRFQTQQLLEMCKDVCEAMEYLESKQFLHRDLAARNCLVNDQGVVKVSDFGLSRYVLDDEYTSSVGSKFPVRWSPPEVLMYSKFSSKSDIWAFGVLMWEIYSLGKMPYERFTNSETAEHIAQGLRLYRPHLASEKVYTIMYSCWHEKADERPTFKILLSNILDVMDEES

| SMILES | IC50 (OCI-LY10 cells; Homo sapiens) [nM] | F (po) % [1] [%] | clearance [1] [mL/min/kg] | half-life [1] [min] | AUC [1] [ng·h/mL] | Cmax [1] [ng/mL] | Tmax [1] [min] | IC50 (BTK kinase) [nM] | IC50 (DOHH2 cells; Homo sapiens, DOHH-2, 72 hours) [nM] | IC50 (TMD8 cells; Homo sapiens) [nM] | IC50 (hERG potassium channel) [nM] | IC50 (DOHH2 cells; 72 hours) [nM] | IC50 (TMD8 cells) [nM] | IC50 (OCI-LY10 cells) [nM] |
| --- | --- | --- | --- | --- | --- | --- | --- | --- | --- | --- | --- | --- | --- | --- |
| CC#CC(=O)N1CCC[C@H]1c1nc(-c2ccc(C(=O)Nc3ccccn3)cc2)c2c(N)nccn12 [ACP-196, reference compound] | 1.4 | 19.75 | 125 | 7.8 | 266 | 266 | 4.8 | – | > 1000 | 1.3 | – | – | – | – |
| C=CC(=O)N1C2C[C@@H](C1c1nc(-c3ccc(C(=O)Nc4ccccn4)cc3)c3c(N)nccn13)N(C(C)=O)C2 (stereo partly drawn) [Example 18] | 0.25 | – | – | – | – | – | – | 1.4 | 177 | 1.6 | > 30000 | – | – | – |
| C=CC(=O)N1CC2CCCC2[C@H]1c1nc(-c2ccc(Oc3ccccc3)cc2)c2c(N)nccn12 (stereo partly drawn) [Example 96] | – | – | – | – | – | – | – | – | – | – | > 30000 | – | – | – |
| C=CC(=O)N1[C@H]2CC[C@@H]1[C@@H](c1nc(-c3ccc(C(=O)Nc4ccccn4)cc3)c3c(N)nccn13)C2 [Example 118, 4-(3-((1R,2S,4S)-7-acryloyl-7-azabicyclo[2.2.1]heptan-2-yl)-8-aminoimidazo[1,5-a]pyrazin-1-yl)-N-(pyridin-2-yl)benzamide] | 4.1 | – | – | – | – | – | – | 5.6 | 712 | 3.9 | – | – | – | – |
| CC#CC(=O)N1[C@H]2CC[C@@H]1[C@@H](c1nc(-c3ccc(C(=O)Nc4ccccn4)cc3)c3c(N)nccn13)C2 [Example 119, 4-(8-amino-3-((1R,2S,4S)-7-(but-2-ynoyl)-7-azabicyclo[2.2.1]heptan-2-yl)imidazo[1,5-a]pyrazin-1-yl)-N-(pyridin-2-yl)benzamide] | 0.42 | – | – | – | – | – | – | 43 | > 1000 | 2.4 | – | – | – | – |
| C=CC(=O)N1CC2CCC1(c1nc(-c3ccc(C(=O)Nc4ccccn4)cc3)c3c(N)nccn13)CC2 [Example 120, 4-(3-(2-acryloyl-2-azabicyclo[2.2.2]octan-1-yl)-8-aminoimidazo[1,5-a]pyrazin-1-yl)-N-(pyridin-2-yl)benzamide] | 4.1 | – | – | – | – | – | – | 24 | 921 | 6.4 | – | – | – | – |
| C=CC(=O)N1CC2(CC2)C[C@H]1c1nc(-c2cccc(C(=O)Nc3ccccn3)c2)c2c(N)nccn12 [Example 124, (S)-3-(3-(5-acryloyl-5-azaspiro[2.4]heptan-6-yl)-8-aminoimidazo[1,5-a]pyrazin-1-yl)-N-(pyridin-2-yl)benzamide] | 1.5 | – | – | – | – | – | – | 18 | 629 | 11.8 | – | – | – | – |
| C=CC(=O)N1C(c2nc(-c3ccc(C(=O)Nc4ccccn4)cc3)c3c(N)nccn23)[C@@H]2C[C@H]1CN2C(=O)OC(C)(C)C (stereo partly drawn) [Example 126, (1 S,4S)-tert-butyl-5-acryloyl-6-(8-amino-1-(4-(pyridin-2-carbamoyl)phenyl)imidazo[1,5-a]pyrazin-3-yl)-2,5-diazabicyclo[2.2.1]heptane-2-carboxylate] | – | – | – | – | – | – | – | 4.4 | – | – | – | 206 | 1.6 | 0.8 |
| C=CC(=O)N1CCC[C@@H](n2nc(-c3ccc(Oc4ccccc4)cc3)c3c(N)ncnc32)C1 [Ibrutinib, reference compound] | 0.41 | 2.67 | – | – | 218 | 217 | 19.8 | – | 705 | 0.28 | – | – | – | – |

The remaining compounds from weak to strong by IC50 (OCI-LY10 cells; Homo sapiens), led by results:

| IC50 (OCI-LY10 cells; Homo sapiens) [nM] | F (po) % [1] [%] | clearance [1] [mL/min/kg] | half-life [1] [min] | AUC [1] [ng·h/mL] | Cmax [1] [ng/mL] | Tmax [1] [min] | IC50 (BTK kinase) [nM] | SMILES | IC50 (DOHH2 cells; Homo sapiens, DOHH-2, 72 hours) [nM] | IC50 (TMD8 cells; Homo sapiens) [nM] | IC50 (hERG potassium channel) [nM] | IC50 (DOHH2 cells; 72 hours) [nM] | IC50 (TMD8 cells) [nM] | IC50 (OCI-LY10 cells) [nM] |
| --- | --- | --- | --- | --- | --- | --- | --- | --- | --- | --- | --- | --- | --- | --- |
| 12.1 | – | – | – | – | – | – | 26 | CN(C/C=C/C(=O)N1CC2CCCC2[C@H]1c1nc(-c2ccc(C(=O)Nc3ccccn3)cc2)c2c(N)nccn12)C1CC1 (stereo partly drawn) [Example 115, 4-(8-amino-3-((1S)-2-((E)-4-(cyclopropyl(methyl)amino)-2-butenoyl)octahydrocyclopenta[c]pyrrol-1-yl)imidazo[1,5-a]pyrazin-1-yl)-N-(pyridin-2-yl) benzamide] | > 1000 | 17.6 | – | – | – | – |
| 8.7 | – | – | – | – | – | – | 58 | C=CC(=O)N1CC2(CC2)C[C@H]1c1nc(-c2ccccc2C(=O)Nc2ccccn2)c2c(N)nccn12 [Example 125, (S)-2-(3-(5-acryloyl-5-azaspiro[2.4]heptan-6-yl)-8-aminoimidazo[1,5-a]pyrazin-1-yl)-N-(pyridin-2-yl)benzamide] | > 1000 | 24.9 | – | – | – | – |
| 0.34 | 34.53 | 32.7 | 33 | 1580 | 1590 | 21.6 | 3.1 | C=CC(=O)N1CC2CCCC2C1c1nc(-c2ccc(Oc3ccccc3)cc2)c2c(N)nccn12 (stereo not drawn) [Example 96] | 200 | 3.2 | – | – | – | – |
| 0.24 | 52.55 | 57 | 37.2 | 1490 | 1620 | 16.2 | – | C=CC(=O)N1CC2CCCC2C1c1nc(-c2ccc(C(=O)Nc3ccccn3)cc2)c2c(N)nccn12 (stereo not drawn) [Example 3] | 191 | 0.26 | > 30000 | – | – | – |
| 0.21 | 20.64 | 121 | 7.8 | 278 | 303 | 6 | 21 | C=CC(=O)N1C[C@H]2[C@@H]([C@H]1c1nc(-c3ccc(C(=O)Nc4ccccn4)cc3)c3c(N)nccn13)C2(C)C [Example 5] | 175 | 3.6 | > 30000 | – | – | – |
